2 compounds from patent US20140335050A1, “METHODS, COMPOSITIONS, AND KITS FOR THE TREATMENT OF CANCER” (The General Hospital Corporation, priority 2011, published 2014) can be followed below.

Common to all, as to format: cell-based, human
The test system of experiment [1] is MU89 melanoma cells. Kind of experiment: Tumor cell/T cell co-culture IL-2 ELISA (Melan-A/MART-1 specific TCR Jurkat line J-TCR-M1 as responder). As to conditions: for Fold increase (IL-2 relative to untreated controls), hits from pilot screen: about 10 μM, 72 hours treatment, then 24 hours co-culture. The text has this: The assay relies on the use of an antigen-specific responder T cell line. […] The chosen TCR reacts specifically to a Melan-A/MART-1 decapeptide (26[…]35) presented by HLA-A2, with appropriate triggering of T cell activation. We then used a lentiviral vector system for transduction of this specific TCR into the J.RT3-T3.5 T cell line, a Jurkat cell derivative which fails to express endogenous surface TCR through a mutation in its beta chain.
We evaluated several candidate melanoma cell lines for the ability to stimulate the J-TCR-M1 cell line. Levels of Melan-A/MART-1 (determined by intracellular staining and flow cytometry) and corresponding levels of induced IL-2 (determined by coculture with J-TCR-M1 and IL-2 ELISA) were tested for different melanoma cell lines.
The 480 compounds were tested in six parallel 96 well plates. The first two columns (16 wells) of each plate were used for standards (8 wells), untreated controls (4 wells), and positive controls (4 wells). The other ten columns (80 wells) were used for testing compounds in separate wells. A100 μl aliquot containing 5×10^4 MU89 cells was added to wells that contained 0.1 μl of each test drug diluted in 50 μl of RPMI media. The plates were incubated with drug for 72 hours at 37° C. in a humidified incubator with 5% CO2. After 72 hours, each well received 2.5×10^4J-TCR-M1 cells in 50 μl medium, and then incubated a further 24 hours. At the conclusion of the 24 hour co-culture period, each plate was centrifuged to pellet the cells and 100 μl supernatant fluid was collected from each well and plated in a parallel 96 well flat bottom well for IL-2 ELISA assay.
Melanoma cells were treated with hits from the primary screen for three days prior to counting and plating for the coculture assay (cells were washed and resuspended in fresh medium that no longer contained the treatment agents during the co-culture). A100 μl volume of 5×10^5 cells/ml tumor cells were mixed with 50 μl of […] T cells in a 96-well V-bottom plate and incubated overnight (16-24 hours). Plates were centrifuged to pellet the cells and 100 μl of supernatant fluid was removed from each well for cytokine assay. To assess antigen-specific T cell responses, a final concentration of 3.33 μg/ml Melan-A/MART-1 peptide (26[…]35 (A27L from wild type)) was added to the co-culture.
The protocol for evaluation of the cytokine IL-2 was performed using a the BD OptEAI kit, human IL-2 ELISA set from BD Biosciences (San Diego, Calif.) following the manufacturer's recommendations. The absorbance 450 nm was read in a BioRad 3550 plate reader. A standard curve using known concentrations of IL-2 (from 500 to 8 pg/ml) was included in each ELISA plate. IL-2 levels for experimental samples (pg/ml) were calculated from the standard curve.
100 μl of 5×10^5 tumor cells/ml were mixed with 50 μl of T cells (at 5×10^5 cells/ml) in a 96-well V-bottom plate and incubated overnight (16-24 hours). Plates were centrifuged to pellet the cells and 120 μl of supernatant fluid was removed from each well for cytokine assay. To assess antigen-specific T cell responses, 3.33 μg/ml Melan-A/MART-1 peptide was added to the co-culture.
The protocols for evaluation of either IL-2 or IFN-gamma were similar, following the manufacturer's recommendations. A standard curve using known concentrations of each cytokine was included in each ELISA experiment. ELISA plates were coated with capture antibody and then washed with 1×PBS 0.5% Tween-20. Wells were blocked with 1×PBS 1% FBS for 1 hour and rewashed.

In experiment [2] the test system is Melan-A/MART-1 promoter EGFP reporter cell line. Kind of experiment: Melan-A/MART-1 promoter-driven EGFP reporter cell line, secondary screen of hits (FIG. 6). The settings on record: over a dose range (FIG. 6). From the text:
FIG. 6 is a series of graphs showing EGFP detection of in cells treated with the indicated hits showing ability to upregulate a cell line containing a Melan-A/MART-1 promoter-driven EGFP reporter. Note that the x-axes (drug concentrations) and y-axes (EGFP fluorescent measurement) cover different ranges to best indicate the activities of individual compounds. Data from a single determination, representative of at least three confirmatory experiments, is shown.
The EGFP reporter driven by the Melan-A/MART-1 promoter represents one such orthogonal assay because it evaluates directly the effect of the compounds on Melan-A/MART-1 promoter activity independent of Melan-A/MART-1 protein expression. Compounds passing the other secondary screens, but failing this one, may affect antigen presentation by other mechanisms such as increasing the efficiency of antigen processing, enhancing MHC Class I levels, or by stabilizing the antigen/MHC complex.
As for the primary screen, 17-AAG and aphidicolin, had the largest impact on EGFP stimulation, inducing 3-fold and 5-fold increases respectively. […]
(§1) Cells were fixed with 1% formaldehyde, permeabilized with 0.1% saponin, stained with monoclonal antibodies to melanocyte antigens. […] The level of EGFP was determined by flow cytometry of unfixed cells that were washed and resuspended in 1×PBS.

Experiment [3] has as its system MU89 MART::EGFP cell line. Kind of experiment: Melan-A/MART-1 promoter-driven EGFP reporter, kinetics by flow cytometry. As to conditions: MU89 MART::EGFP (FIG. 11). As to the method: FIG. 11 is a set of four graphs showing the kinetics of Melan-A/MART-1 increase. […] The same number of cells per well were plated in each well of a 24 well plate and drug was added on day zero. Each day cells were collected and assayed for that time point. Control untreated cells are shown for comparison. The data are from one representative experiment.
A kinetic analysis was performed to determine the effect of Hsp90 inhibition on Melan-A/MART-1 promoter activity over time. […] Reporter activity increases steadily for the first 72 hours of Hsp90 inhibition, and then plateaus. The need for continued presence of Hsp90 inhibitors in order for them to be effective (i.e. whether the drug can be removed after short exposure, or whether it must it be continually present) was assessed. […] To achieve full signal enhancement, it is desirable to retain the drug for at least 48 hours, after which the effect remains constant or slightly decreases.
The generation and application of EGFP reporter cells has been previously described. Briefly, a 1200 base pair human genomic DNA segment encompassing the Melan-A/MART-1 promoter was used to generate a construct driving expression of the EGFP reporter gene. Stable transfectants with this construct were generated in the low-antigen cell line A375 and the high-antigen line MM96L+ and MU89. The EGFP expression response patterns of these cells to IFN-beta and MAP kinase inhibitors recapitulates the antigen up-regulation of endogenous Melan-A/MART-1 induced by these agents.
Intracellular staining and flow cytometric analyses of cytoplasmic Melan-A/MART-1, and gp100 expression were performed as described previously. Cells were fixed with 1% formaldehyde, permeabilized with 0.1% saponin, stained with monoclonal antibodies to melanocyte antigens. Antibodies were obtained with specificity for: Melan-A/MART-1 from Vector Labs (Burlingame, Calif.); gp100/HMB45 from DakoCytomation (Carpinteria, Calif.) and then visualized with goat anti-mouse FITC-conjugated secondary antibody from Invitrogen (Frederick, Md.). The level of EGFP was determined by flow cytometry of unfixed cells washed and resuspended in 1×PBS. Surface staining of MHC Class I was carried out using the antibody W6/32 on cells harvested with Cell Stripper from MediaTech Inc. (Manassas, Va.) and carried out on ice.

Experiment [4] has as its system melanomas and gliomas. The experiment can be described thus: Intracellular staining for Melan-A/MART-1 and gp100, melanomas and gliomas exposed to hits (Table 10). The settings on record: in most cell lines; three days (Table 10). As to the method: FIG. 7 is a series of graphs showing intracellular staining and flow histograms used to generate data for Table 10. All cells were stained with an antibody to gp100. Thin line represents untreated cells, bold line represents cells treated for three days with 17-AAG (1 μg/ml). Numbers represent geometric mean of flow histograms.
A further orthogonal secondary screen is the measurement of Melan-A/MART-1 and gp100 in additional melanoma cell lines and gliomas in response to the primary hit candidates. […] If the compounds of interest increase antigen levels in multiple melanoma cell lines and two gliomas, the effects of the compounds are clearly not limited to a single melanoma cell type.
As for the primary screen, 17-AAG and aphidicolin, had the largest impact on EGFP stimulation, inducing 3-fold and 5-fold increases respectively. Four additional compounds: damnacanthal, flunarizine, OBAA, and dantrolene stimulated EGFP more than 2-fold. We then tested the ability of the hit compounds to induce antigen increases in a more diverse set of tumors including melanomas and gliomas. […]
as §1

In experiment [5] the test system is J-TCR-M1 T cells. The experiment can be described thus: Secondary screen for nonspecific T cell activation (T cells alone, IL-2). As to conditions: 2.5×10^4 T cells alone, no tumor; PMA 2 μg/ml. As for the experimental part: FIG. 4 is a graph showing IL-2 expression from the secondary screen for nonspecific T cell activation. Bars indicate the incubation of 2.5×10^4 T cells alone with the indicated compounds. The concentration of compounds used in this assay are; 17-AAG 10 μg/ml, OBAA 25 μg/ml, aphidicolin 4 μg/ml, flunarizine 8 μg/ml, dantrolene 2 μg/ml, glyburide 4 μg/ml, and PMA 2 μg/ml.
Secondary screens were carried out on the 8 primary hits, to further test performance robustness, specificity, and certain functional properties. Initially, for any previously-described compound, extensive literature searches must be performed to look for all relevant known bioactivities, especially towards melanocytic cells or T cells. […] Testing for non-specific T cell stimulation will identify false positives, and compounds failing this test will not be further evaluated in any other secondary screens. […]
The protocol for evaluation of the cytokine IL-2 was performed using a the BD OptEAI kit, human IL-2 ELISA set from BD Biosciences (San Diego, Calif.) following the manufacturer's recommendations. The absorbance 450 nm was read in a BioRad 3550 plate reader. […] IL-2 levels for experimental samples (pg/ml) were calculated from the standard curve.

Turning to `C=CCNC1=C2C[C@@H](C)C[C@H](OC)[C@H](O)[C@@H](C)/C=C(\C)[C@H](OC(N)=O)[C@@H](OC)/C=C\C=C(/C)C(=O)NC(=CC1=O)C2=O` [17-AAG, 17-allylaminogeldanamycin], the “Outcome in the primary co-culture IL-2 screen (hit or not)” value in experiment [1] (ICCB Known Bioactives Library, 10 μM) was “identified as a hit”. For the same compound, the “Fold increase (IL-2 relative to untreated controls), hits from pilot screen” value in experiment [1] was found to be 7.7 fold. Moreover, the “IL-2 stimulation in repeat of the tumor T cell co-culture IL-2 ELISA” value in experiment [1] (hits re-tested over a wider dose range (FIG. 5)) is listed as “about 7 fold”. In experiment [2], the “EGFP stimulation (Melan-A/MART-1 promoter reporter)” value amounted to 3 fold. The “Time at which the fluorescent reporter signal is significantly enhanced (as early as)” value in experiment [3] was 2 days. For the same compound, in experiment [4], the “Protein increase (Melan-A/MART-1, gp100 intracellular staining)” value is “inducing high levels of protein increases at low concentrations”.

Consider `CCCCCCCCCCCCCC(=O)O[C@@H]1[C@@H](C)[C@@]2(O)[C@@H](C=C(CO)C[C@]3(O)C(=O)C(C)=C[C@@H]23)[C@@H]2C(C)(C)[C@]12OC(C)=O` [PMA, phorbol-12-myristate-13 acetate], for which the “Fold increase (IL-2 relative to untreated controls), hits from pilot screen” value in experiment [1] is recorded as 1.9 fold. Besides, in experiment [5], the “IL-2 expression of T cells incubated alone with compound (nonspecific T cell activation)” value is given as “caused T cells stimulation in the absence of tumor”.
